Experimental findings from patent US20240228535A1 (priority 2022, published 2024) are described below.

The test has as its target SARS2 coronavirus 3CL protease (Severe acute respiratory syndrome coronavirus 2, UniProt P0DTD1). Briefly: biochemical. To be noted: 5 nM enzyme, 30 min pre-incubation with compound, 15 μM peptide substrate, 4 h at room temperature; read-out: FRET Potency (nM); IC50 values in the SARS2 3CLPro FRET assay.
Regarding `O=C(CCC(F)(F)F)Nc1ccc(Cl)cc1C(=O)N[C@@H](C[C@@H]1C[C@@H](C(F)(F)F)NC1=O)C(=O)C(=O)NC1CC1` [Example 68, 5-chloro-N-[(1S)-3-(cyclopropylamino)-2,3-dioxo-1-[[(3R,5S)-2-oxo-5-(trifluoromethyl)pyrrolidin-3-yl]methyl]propyl]-2-(4,4,4-trifluorobutanoylamino) benzamide], the IC50 was 7 nM.
Regarding `C[C@@H]1C[C@@H](C[C@H](NC(=O)c2cc(F)ccc2NC(=O)c2ccnc(C(F)(F)F)c2)C(=O)C(=O)NC2CC2)C(=O)N1` [Example 77, N-[2-[[(1S)-3-(cyclopropylamino)-1-[[(3S,5R)-5-methyl-2-oxo-pyrrolidin-3-yl]methyl]-2,3-dioxo-propyl]carbamoyl]-4-fluoro-phenyl]-2-(trifluoromethyl)pyridine-4-carboxamide], the IC50 is 5.3 nM.
For `CNC(=O)C(=O)[C@H](C[C@@H]1C[C@@H](C)NC1=O)NC(=O)c1cc(Cl)cnc1NC(=O)c1ccc(F)cc1` [Example 57, 5-chloro-2-[(4-fluorobenzoyl)amino]-N-[(1S)-3-(methylamino)-1-[[(3S,5R)-5-methyl-2-oxo-pyrrolidin-3-yl]methyl]-2,3-dioxo-propyl]pyridine-3-carboxamide] the value was 8.1 nM.
`CNC(=O)C(=O)[C@H](C[C@@H]1C[C@@H](C)NC1=O)NC(=O)c1cc(F)cnc1NC(=O)c1cccc(C(F)(F)F)c1` [Example 28, 5-fluoro-N-[(1S)-3-(methylamino)-1-[[(3S,5R)-5-methyl-2-oxo-pyrrolidin-3-yl]methyl]-2,3-dioxo-propyl]-2-[[3-(trifluoromethyl)benzoyl]amino]pyridine-3-carboxamide]: the IC50 was determined as 13.2 nM.
As to `CNC(=O)C(=O)[C@H](C[C@@H]1CCNC1=O)NC(=O)c1cc(Cl)ccc1NC(=O)OCC(F)(F)F` [Example 163, 2,2,2-trifluoroethyl N-[4-chloro-2-[[(1S)-3-(methylamino)-2,3-dioxo-1-[[(3S)-2-oxopyrrolidin-3-yl]methyl]propyl]carbamoyl]phenyl]carbamate], the IC50 was 8.6 nM.
Take `O=C(NC1CC1)C(=O)[C@H](C[C@@H]1CCNC1=O)NC(=O)c1cc(Cl)ccc1NC(=O)c1ccnc(C(F)(F)F)c1` [Example 75, N-[4-chloro-2-[[(1S)-3-(cyclopropylamino)-2,3-dioxo-1-[[(3S)-2-oxopyrrolidin-3-yl]methyl]propyl]carbamoyl]phenyl]-2-(trifluoromethyl)pyridine-4-carboxamide]: the IC50 is 6 nM.
Turning to `C[C@@H]1C[C@@H](C[C@H](NC(=O)c2cc(C#N)ccc2NC(=O)c2cccc(C(F)(F)F)c2)C(=O)C(=O)NC2CC2)C(=O)N1` [Example 61, 5-cyano-N-[(1S)-3-(cyclopropylamino)-1-[[(3S,5R)-5-methyl-2-oxo-pyrrolidin-3-yl]methyl]-2,3-dioxo-propyl]-2-[[3-(trifluoromethyl)benzoyl]amino]benzamide], the IC50 turned out to be 7.7 nM.
For `C[C@@H]1C[C@@H](C[C@H](NC(=O)c2cc(Cl)ccc2NC(=O)c2cnc(C(F)(F)F)cn2)C(=O)C(=O)NC2CC2)C(=O)N1` [Example 226, N-[4-chloro-2-[[(1S)-3-(cyclopropylamino)-1-[[(3S,5R)-5-methyl-2-oxo-pyrrolidin-3-yl]methyl]-2,3-dioxo-propyl]carbamoyl]phenyl]-5-(trifluoromethyl)pyrazine-2-carboxamide], the IC50 is 19.1 nM.
Turning to `C[C@@H]1C[C@@H](C[C@H](NC(=O)c2cc(Cl)ccc2NC(=O)c2cccc(C(F)(F)F)c2)C(=O)C(N)=O)C(=O)N1` [Example 48, N-[(1S)-3-amino-1-[[(3S,5R)-5-methyl-2-oxo-pyrrolidin-3-yl]methyl]-2,3-dioxo-propyl]-5-chloro-2-[[3-(trifluoromethyl)benzoyl]amino]benzamide], the IC50 turned out to be 8.8 nM.
Turning to `COC(=O)Nc1ccc(Cl)cc1C(=O)N[C@@H](C[C@@H]1C[C@@H](C)NC1=O)C(=O)C(N)=O` [Example 107, methyl N-[2-[[(1S)-3-amino-1-[[(3S,5R)-5-methyl-2-oxo-pyrrolidin-3-yl]methyl]-2,3-dioxo-propyl]carbamoyl]-4-chloro-phenyl]carbamate], the IC50 amounted to 12.6 nM.
Regarding `CNC(=O)C(=O)[C@H](C[C@@H]1C[C@@H](C)NC1=O)NC(=O)c1cc(Cl)ccc1NC(=O)c1cc(C(F)(F)F)ccn1` [Example 72, N-[4-chloro-2-[[(1S)-3-(methylamino)-1-[[(3S,5R)-5-methyl-2-oxo-pyrrolidin-3-yl]methyl]-2,3-dioxo-propyl]carbamoyl]phenyl]-4-(trifluoromethyl)pyridine-2-carboxamide], the IC50 is 6.3 nM.
On to `O=C(NC1CC1)C(=O)[C@H](C[C@@H]1CCNC1=O)NC(=O)c1cc(Cl)ccc1NC(=O)C(F)(F)F` [Example 51, 5-chloro-N-[(1S)-3-(cyclopropylamino)-2,3-dioxo-1-[[(3S)-2-oxopyrrolidin-3-yl]methyl]propyl]-2-[(2,2,2-trifluoroacetyl)amino] benzamide], for which the IC50 amounted to 8.6 nM.
For `O=C(NC1CC1)C(=O)[C@H](C[C@@H]1CCCNC1=O)NC(=O)c1cc(Cl)ccc1NC(=O)c1ccnc(C(F)(F)F)c1` [Example 234, N-[4-chloro-2-[[(1S)-3-(cyclopropylamino)-2,3-dioxo-1-[[(3S)-2-oxo-3-piperidyl]methyl]propyl]carbamoyl]phenyl]-2-(trifluoromethyl)pyridine-4-carboxamide], the IC50 came out at 17.1 nM.
With `CNC(=O)C(=O)[C@H](C[C@@H]1CCNC1=O)NC(=O)c1cc(Cl)ccc1NC(=O)C1CC1C(F)(F)F` (some centres unmarked) [Example 175] the figure was 2.8 nM; with `CNC(=O)C(=O)[C@H](C[C@@H]1C[C@@H](C)NC1=O)NC(=O)c1cc(Cl)ccc1NC(=O)OC1CCCC1` [Example 167, cyclopentyl N-[4-chloro-2-[[(1S)-3-(methylamino)-1-[[(3S,5R)-5-methyl-2-oxo-pyrrolidin-3-yl]methyl]-2,3-dioxo-propyl]carbamoyl]phenyl] carbamate], 5.5 nM.
As for `CC(C)C(=O)Nc1ccc(Cl)cc1C(=O)N[C@@H](C[C@@H]1C[C@@H](C)NC1=O)C(=O)C(=O)NC1CC1` [Example 147, 5-chloro-N-[(1S)-3-(cyclopropylamino)-1-[[(3S,5R)-5-methyl-2-oxo-pyrrolidin-3-yl]methyl]-2,3-dioxo-propyl]-2-(2-methylpropanoylamino) benzamide], the IC50 came to 11.6 nM.
On to `CNC(=O)C(=O)[C@H](C[C@@H]1C[C@@H](C)NC1=O)NC(=O)c1cc(Cl)ccc1NC(=O)[C@@H]1CN(C)C(=O)O1` [Example 182, (5S)-N-[4-chloro-2-[[(1S)-3-(methylamino)-1-[[(3S,5R)-5-methyl-2-oxo-pyrrolidin-3-yl]methyl]-2,3-dioxo-propyl]carbamoyl]phenyl]-3-methyl-2-oxo-oxazolidine-5-carboxamide], for which the IC50 was determined as 6.7 nM.
For `C[C@@H]1C[C@@H](C[C@H](NC(=O)c2cc(Cl)ccc2NC(=O)C2CC2C(F)(F)F)C(=O)C(=O)NC2CC2)C(=O)N1` (stereo partly drawn) [Example 98, 5-chloro-N-[(1S)-3-(cyclopropylamino)-1-[[(3S,5R)-5-methyl-2-oxo-pyrrolidin-3-yl]methyl]-2,3-dioxo-propyl]-2-[[2-(trifluoromethyl)cyclopropane-carbonyl]amino]benzamide], the IC50 turned out to be 9.5 nM.
With `CNC(=O)C(=O)[C@H](C[C@@H]1C[C@@H](C)NC1=O)NC(=O)c1cc(Cl)ccc1NC(=O)c1nccc(C(F)(F)F)n1` [Example 216] the figure was 9.6 nM; with `CNC(=O)C(=O)[C@H](C[C@@H]1C[C@@H](C)NC1=O)NC(=O)c1cc(Cl)ccc1NC(=O)C1CCC(F)(F)CC1` [Example 197], 9.4 nM; with `O=C(CCC(F)(F)F)Nc1ccc(Cl)cc1C(=O)N[C@@H](C[C@@H]1CCNC1=O)C(=O)C(=O)NC1CC1` [Example 29, 5-chloro-N-[(1S)-3-(cyclopropylamino)-2,3-dioxo-1-[[(3S)-2-oxopyrrolidin-3-yl]methyl]propyl]-2-(4,4,4-trifluorobutanoylamino) benzamide], 13.1 nM.
Consider `CNC(=O)C(=O)[C@H](C[C@@H]1C[C@@H](C)NC1=O)NC(=O)c1cc(Cl)c(F)cc1NC(=O)OC1CC1` [Example 154, cyclopropyl N-[4-chloro-5-fluoro-2-[(1S)-3-(methylamino)-1-[[(3S,5R)-5-methyl-2-oxo-pyrrolidin-3-yl]methyl]-2,3-dioxo-propyl]carbamoyl]phenyl] carbamate], for which the IC50 turned out to be 4.5 nM.
With `C[C@@H]1C[C@@H](C[C@H](NC(=O)c2cc(Cl)cc(F)c2NC(=O)C23CC(F)(C2)C3)C(=O)C(=O)NC2CC2)C(=O)N1` [Example 206] the figure was 12.8 nM; with `C[C@@H]1C[C@@H](C[C@H](NC(=O)c2cc(Cl)ccc2NC(=O)C2CC2C(F)(F)F)C(=O)C(=O)NC2CC2)C(=O)N1` (stereo partly drawn) [Example 85, 5-chloro-N-[(1S)-3-(cyclopropylamino)-1-[[(3S,5R)-5-methyl-2-oxo-pyrrolidin-3-yl]methyl]-2,3-dioxo-propyl]-2-[[2-(trifluoromethyl)cyclopropane-carbonyl]amino]benzamide], 15.2 nM.
As for `CNC(=O)C(=O)[C@H](C[C@@H]1CCNC1=O)NC(=O)c1cc(Cl)ccc1NC(=O)CCC(F)(F)F` [Example 159, 5-chloro-N-[(1S)-3-(methylamino)-2,3-dioxo-1-[[(3S)-2-oxopyrrolidin-3-yl]methyl]propyl]-2-(4,4,4-trifluorobutanoylamino) benzamide], the IC50 worked out at 7.9 nM.
In the case of `CNC(=O)C(=O)[C@H](C[C@@H]1C[C@@H](C)NC1=O)NC(=O)c1cc(OC(F)F)cnc1NC(=O)c1cccc(C(F)(F)F)c1` [Example 18, 5-(difluoromethoxy)-N-[(1S)-3-(methylamino)-1-[[(3S,5R)-5-methyl-2-oxo-pyrrolidin-3-yl]methyl]-2,3-dioxo-propyl]-2-[[3-(trifluoromethyl)benzoyl]amino]pyridine-3-carboxamide], the IC50 is 31.1 nM.
